Assay results as given in ChEMBL document CHEMBL1145423, “Synthesis and pharmacological evaluation of phenylethynyl[1,2,4]methyltriazines as analogues of 3-methyl-6-(phenylethynyl)pyridine” (J Med Chem, 2007).
Calls of active or inactive are those of the source. The calls are words filed in the database; no cut-off is given here.

Legend:
[1] = target: Metabotropic glutamate receptor 1 (Homo sapiens) (UniProt Q13255); experiment: Antagonist activity at human mGluR1 receptor expressed in CHOK1 cells assessed as inhibition of glutamate-mediated internal calcium mobilization; format: functional, cell-based; conditions: CHO-K1
Sequence of Metabotropic glutamate receptor 1 (Homo sapiens) (Q13255 19-1194 limits assumed): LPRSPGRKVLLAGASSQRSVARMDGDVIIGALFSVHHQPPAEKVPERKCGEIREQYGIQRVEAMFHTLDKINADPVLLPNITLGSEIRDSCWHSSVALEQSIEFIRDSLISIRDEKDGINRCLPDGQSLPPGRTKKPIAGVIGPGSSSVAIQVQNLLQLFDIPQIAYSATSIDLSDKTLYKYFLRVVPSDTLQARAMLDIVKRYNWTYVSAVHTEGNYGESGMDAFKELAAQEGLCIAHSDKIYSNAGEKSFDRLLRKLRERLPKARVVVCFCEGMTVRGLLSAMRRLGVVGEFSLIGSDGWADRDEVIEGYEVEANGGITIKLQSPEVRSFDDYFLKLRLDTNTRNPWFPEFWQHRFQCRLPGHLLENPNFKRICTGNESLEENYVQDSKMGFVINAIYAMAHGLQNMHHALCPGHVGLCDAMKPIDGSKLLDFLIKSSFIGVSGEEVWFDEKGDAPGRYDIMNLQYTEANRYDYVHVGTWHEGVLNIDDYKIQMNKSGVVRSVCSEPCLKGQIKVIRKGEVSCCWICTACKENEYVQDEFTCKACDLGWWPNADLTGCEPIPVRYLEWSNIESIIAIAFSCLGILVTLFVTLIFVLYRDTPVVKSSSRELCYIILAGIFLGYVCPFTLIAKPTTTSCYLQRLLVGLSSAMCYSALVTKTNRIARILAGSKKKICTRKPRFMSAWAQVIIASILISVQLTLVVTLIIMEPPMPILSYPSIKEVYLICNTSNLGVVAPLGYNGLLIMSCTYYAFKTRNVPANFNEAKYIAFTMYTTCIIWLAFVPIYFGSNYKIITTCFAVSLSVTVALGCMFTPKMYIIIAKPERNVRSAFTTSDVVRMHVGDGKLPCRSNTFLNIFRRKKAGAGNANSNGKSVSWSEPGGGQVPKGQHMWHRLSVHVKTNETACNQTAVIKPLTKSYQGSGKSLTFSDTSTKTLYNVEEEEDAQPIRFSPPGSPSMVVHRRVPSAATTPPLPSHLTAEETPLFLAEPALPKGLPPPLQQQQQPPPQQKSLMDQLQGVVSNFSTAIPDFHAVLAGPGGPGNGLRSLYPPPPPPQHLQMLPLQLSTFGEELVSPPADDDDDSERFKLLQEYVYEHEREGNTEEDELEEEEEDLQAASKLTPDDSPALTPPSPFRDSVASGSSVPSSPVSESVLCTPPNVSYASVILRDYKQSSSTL

[2] = target: Metabotropic glutamate receptor 5 (Homo sapiens, UniProt P41594); experiment: Antagonist activity at human mGluR5 receptor expressed in CHOK1 cells assessed as inhibition of glutamate-mediated internal calcium mobilization; format: functional, cell-based, CHO-K1
Sequence of Metabotropic glutamate receptor 5 (P41594 whole entry): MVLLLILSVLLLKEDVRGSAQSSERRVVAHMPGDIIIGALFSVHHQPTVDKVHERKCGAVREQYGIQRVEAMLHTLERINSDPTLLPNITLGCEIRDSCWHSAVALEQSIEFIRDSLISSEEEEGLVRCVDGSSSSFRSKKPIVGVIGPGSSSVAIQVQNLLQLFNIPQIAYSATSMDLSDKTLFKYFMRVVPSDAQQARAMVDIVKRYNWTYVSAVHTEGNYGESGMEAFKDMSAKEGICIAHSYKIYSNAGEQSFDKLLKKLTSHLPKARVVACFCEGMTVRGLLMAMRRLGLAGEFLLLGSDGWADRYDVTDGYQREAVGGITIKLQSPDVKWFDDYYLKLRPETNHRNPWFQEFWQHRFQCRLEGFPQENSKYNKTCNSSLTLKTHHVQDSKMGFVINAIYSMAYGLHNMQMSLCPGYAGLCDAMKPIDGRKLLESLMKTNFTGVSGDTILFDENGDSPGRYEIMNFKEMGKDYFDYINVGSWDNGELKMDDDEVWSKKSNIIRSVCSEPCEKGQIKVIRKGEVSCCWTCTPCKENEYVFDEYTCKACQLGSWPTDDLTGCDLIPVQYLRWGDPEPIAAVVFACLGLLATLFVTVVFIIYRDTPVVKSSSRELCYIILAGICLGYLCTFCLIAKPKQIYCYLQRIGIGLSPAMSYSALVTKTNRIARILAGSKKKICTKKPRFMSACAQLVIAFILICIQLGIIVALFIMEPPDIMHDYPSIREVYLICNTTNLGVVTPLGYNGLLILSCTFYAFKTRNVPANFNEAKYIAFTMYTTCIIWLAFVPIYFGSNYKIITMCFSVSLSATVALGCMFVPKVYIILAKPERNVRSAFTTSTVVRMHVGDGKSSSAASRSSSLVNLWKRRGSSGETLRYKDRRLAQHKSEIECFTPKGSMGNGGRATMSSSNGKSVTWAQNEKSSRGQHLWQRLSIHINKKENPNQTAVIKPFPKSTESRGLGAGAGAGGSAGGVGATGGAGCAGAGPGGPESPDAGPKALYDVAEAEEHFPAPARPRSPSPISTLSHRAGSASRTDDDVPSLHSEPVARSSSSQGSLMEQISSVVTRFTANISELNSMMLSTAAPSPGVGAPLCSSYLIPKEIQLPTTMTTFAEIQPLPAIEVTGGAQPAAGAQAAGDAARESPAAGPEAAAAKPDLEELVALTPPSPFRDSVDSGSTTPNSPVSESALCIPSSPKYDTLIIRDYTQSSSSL

Activity [1] | IC50 ([2]; read-out: IC50) | IC50 ([2]; cho-k1) | Structure (SMILES)
inactive | 0.51 µM |  | Cc1cnnc(C#Cc2ccc(-c3ccccc3)cc2)n1
 |  | Not Active | Cc1cnc(C#Cc2ccccc2)nn1
inactive | 0.14 µM |  | Cc1cnnc(C#Cc2ccccc2)n1
inactive | 0.312 µM |  | COc1cccc(C#Cc2nncc(C)n2)c1
inactive | 0.006 µM |  | Cc1cnnc(C#Cc2cccc(Br)c2)n1
inactive | 0.096 µM |  | Cc1cnnc(C#Cc2cccc(F)c2)n1
 |  | Not Active | Cc1cnnc(C#Cc2ccc3c(c2)OCO3)n1
inactive | 0.0023 µM |  | Cc1cccc(C#Cc2nncc(C)n2)c1
 |  | Not Active | Cc1cnnc(C#Cc2ccccc2C)n1
 |  | Not Active | Cc1cnnc(C#Cc2cc(C(F)(F)F)cc(C(F)(F)F)c2)n1
inactive | 0.132 µM |  | Cc1cnnc(C#Cc2ccc(F)c(C)c2)n1
inactive | 0.0042 µM |  | Cc1cnnc(C#Cc2cccc(Cl)c2)n1
inactive | 0.085 µM |  | Cc1cnnc(C#Cc2cccc(C(F)(F)F)c2)n1
 |  | Not Active | Cc1nncc(C#Cc2ccccc2)n1
 |  | Not Active | Cc1cnnc(C#Cc2ccc(F)cc2F)n1
inactive | 0.052 µM |  | Cc1cnnc(C#Cc2cccc(C#N)c2)n1
 |  | Not Active | Cc1cnnc(C#Cc2ccc(C(F)(F)F)cc2)n1
inactive | 0.08 µM |  | Cc1cnnc(C#Cc2ccc(Oc3ccccc3)cc2)n1
inactive | 8.9 µM |  | Cc1cnnc(C#Cc2cccc3ccccc23)n1
 |  | Not Active | COc1ccccc1C#Cc1nncc(C)n1
 |  | Not Active | Cc1cnnc(C#Cc2ccc3ccccc3c2)n1
 |  | Not Active | COc1ccc(C#Cc2nncc(C)n2)c(C)c1
inactive | 1.89 µM |  | Cc1ccc(C)c(C#Cc2nncc(C)n2)c1
